Measurements published in patent publication US12098395B2, “Polypeptide with function of targeting recognition of immune cells and application thereof” (Keyangle Life Technology Co., Ltd., priority 2018, dated 2024).
No end group written: not given here. code X = not defined here

Experiments:
[1] = tested on: mouse macrophage cell line RAW264.7; assay: In vitro fluorescence labeled staining of a mouse macrophage cell line; assay type: cell-based; conditions: 10 μM probe, 1 h incubation
Protocol: Culture the mouse macrophage cell line RAW264.7 in a 96-well plate, wash the wells once with 1×PBS buffer or a serum-free DMEM incomplete medium, remove the washing liquid, add EK24 solution of 10 μM which had been diluted with 100 μL of serum-free DMEM incomplete medium, and incubate in a cell culture incubator for 1 h. After that, wash the wells twice with 1×PBS buffer or the serum-free DMEM incomplete medium. Then, add DMEM complete medium containing 10% FBS and 1% streptomycin-penicillin, and double-stain the cells using nuclear dye Nucblue, and observe under EVOS® FL Auto fluorescence microscope (Life Technologies, light source 10%, exposure 200 ms, gain 5).

[2] = tested on: mouse peritoneal macrophages; assay: In vivo fluorescent labeling of macrophages in a mouse abdominal cavity; set-up: species or system Kunming mice; conditions: for recognition of macrophages in vivo: conclusion from Table 1, mouse peritoneal macrophages; for fluorescent labeling of macrophages extracted from the mouse abdominal cavity: labeled in vivo by intraperitoneal injection, cells extracted after 4 hours, Nucblue double-stain
Protocol: Dilute 300 μL of 50 μM EK24 fluorescent probe solution with serum-free DMEM incomplete medium to obtain 1 mL of solution, then inject into the abdominal cavity of 5-8 weeks old Kunming mice. After 4 hours, inject 5 mL of 1×PBS and massage. After 10 minutes, sacrifice the mice by cervical vertebra dislocation. Cut the abdominal cavity skin of the mice, pierce the abdominal wall muscle by a syringe, and extract the fluid in the abdominal cavity of the mice. Centrifuge the extracted peritoneal fluid at 1000 rpm for 5 min, wash twice with 1×PBS. Add appropriate amount of cells to a 96-well plate and double-stain with a nuclear dye Nucblue (Invitrogen). Observe under fluorescence microscope (light source 10%, exposure 200 ms, gain 5) after the suspended cells were settled down at the bottom of the plate.
Table 1 lists probes, which contain the polypeptide fragments from the C-terminal fragments of Triokinases/FMN cyclases of different species and were prepared by a similar process as described in Examples 1 and 2, and in vivo imaging results of mouse peritoneal macrophages using these probes.

[3] = tested on: cultured macrophages isolated from mouse peritoneal cavity; assay: In vitro fluorescent labeling of cultured macrophages isolated from mouse peritoneal cavity, co-staining with F4/80 antibody; assay type: cell-based; conditions: 10 μM EK24 premixed with F4/80 antibody, 1 h at 37° C.
Protocol: Inject 5 mL of serum-free DMEM incomplete medium into the abdominal cavity of 5 to 8 weeks old mice, massage the abdominal cavity gently for 10 min, and sacrifice the mice by cervical vertebra dislocation. Extract the fluid from the abdominal cavity gently with a syringe, inject into a 5 mL centrifuge tube and centrifuge at 1000 rpm for 5 min, remove the supernatant, and resuspend the collected ex-vivo cells in DMEM/F12 medium containing 10% FBS, then add into a 96-well plate for culture. Generally, if cells are taken intraperitoneally for in vitro culture, macrophages would tend to adhere to bottom of the well, and other cells would be washed off. The cells were cultured for more than 2 days until the cells attached the bottom firmly. At this time, the cells remaining in the wells were basically macrophages. Select two wells, one as a control and the other as an experimental well. The cells of the control were nuclear stained with Nucblue. The experimental well was added with a premix of AlexaFluor®488 anti-mouse F4/80 antibody (Biolegend) and EK24 fluorescent probe, and then incubated for 1 h at 37° C. The premix contained 10 μM of EK24 solution and 2 μL of Alexa Fluor®488 anti-mouse F4/80 antibody diluted with 100 μL of serum-free DMEM incomplete medium. […] The cells were observed under a fluorescence microscope (20×objective lens, light source 10%, exposure 200 ms, gain 5).

[4] = tested on: primary macrophages from rat peritoneal cavity; assay: In vitro fluorescent labeling of primary macrophages from rat peritoneal cavity; assay type: cell-based, SD rats; conditions: cultured more than 2 days
Protocol: With the same process as in Example 5, extract cells from the abdominal cavity of 5 to 8 weeks old SD rats using 20 mL serum-free DMEM incomplete medium and culture the cells in a 96-well plate. After culturing for more than 2 days, until the cells attached the bottom firmly, a well was selected and added with EK24 fluorescent probe for incubation. Then the cells were observed under a fluorescence microscope (20×, light source 10%, exposure 200 ms, gain 5).

[5] = tested on: monocyte precursors from rat bone marrow; assay: In vitro fluorescent labeling of rat primary monocyte precursors; assay type: cell-based
Source text: With a similar process to Example 7, mononuclear cell precursors from rat femoral bone marrow were taken and cultured, and then labeled by using EK24 fluorescent probe and Nucblue. Then the cells were observed under a fluorescence microscope (20×, light source 10%, exposure 200 ms, gain 5).

[6] = tested on: bone marrow monocyte precursors of New Zealand White Rabbit; assay: In vitro fluorescent labeling of primary monocyte precursors of New Zealand White Rabbit; assay type: cell-based
Source text: With a similar process to Example 7, bone marrow monocyte precursors of New Zealand White Rabbit were taken and cultured, then labeled by using EK24 fluorescent probe and Nucblue. Then the cells were observed under a fluorescence microscope (20×, light source 10%, exposure 200 ms, gain 5).

[7] = tested on: cultured peritoneal macrophages and mesenteric digestive cells; assay: Selective labeling of cultured peritoneal macrophages among cells released from enzyme-digested mesenterium; assay type: cell-based, Kunming mice; conditions: peritoneal cells and trypsin-digested mesenteries cultured 3 days
Protocol: Take 5 to 8 week-old Kunming mice, inject intraperitoneally with 5 mL of serum-free DMEM incomplete medium. After 1 hour, sacrifice the mice by cervical vertebra dislocation. Make an incision on the skin of abdominal cavity, pierce the abdominal wall muscle using a syringe, and extract the fluid in the abdominal cavity of the mice. Wash twice with 1×PBS, collect peritoneal cells by centrifugation. Also take the mesenteries of the Kunming mice and purge twice with 1×PBS in centrifuge tubes. Incubate the obtained peritoneal cells and mesenteries in 0.25% trypsin solution and digest for 30 minutes. Enrich the cells by centrifugation, and then culture for 3 days in a 96-well plate using F12/DMEM culture solution containing 10% FBS and 1% streptomycin-penicillin. Referring to Example 5, label with the EK24 fluorescent probe and Nucblue. Then the cells were observed under a fluorescence microscope (20×, light source 10%, exposure 200 ms, gain 5).

[8] = tested on: macrophages on mouse abdominal wall; assay: In vivo fluorescent labeling of macrophages on mouse abdominal wall with CD68 antibody co-staining; conditions: in vivo injection, abdominal wall muscle removed
Protocol: Referring to Example 4, using the same drug injection process, inject EK24, and FITC anti-mouse CD68 antibody (Biolegend) which was diluted with PBS from 2 μL to 500 μL. Remove mouse abdominal wall muscle for Nucblue double-staining and then observing under a fluorescence microscope (20×, light source 50%, exposure 200 ms, gain 5).

[9] = tested on: monocyte precursors from mouse bone marrow; assay: Fluorescence labeling of mouse primary monocyte precursors at different incubation times; assay type: cell-based; conditions: incubating only for 10 min
Protocol: Referring to Example 7, using the same treatment process, the monocyte precursors from mouse bone marrow were obtained. After culturing for 6 days, the cultured cells were labeled with […] fluorescent probe over different incubation times. Then the cells were observed under a fluorescence microscope (20×, light source 20%, exposure 200 ms, gain 5).
Nucblue was further used for nuclear staining. In each of FIGS. 18A, 18B, 18C, and 18D, i) is an image labeled with the […] fluorescent probe (shown in red in the original fluorescence color image), and ii) is an image obtained by nuclear staining with Nucblue (shown in blue in the original fluorescence color image), and iii) is a merged image of i) and ii).

EQPDPGAVAAAAILRAILEVLQS-Y (not fully specified (C-terminus)) [EK24, Human/rhesus Triokinase/FMN cyclase C-terminal peptide; Y is lysine plus rhodamine fluorescent labeling group on the lysine side chain]
fluorescent labeling of RAW264.7 cells [1]: can be labeled
recognition of macrophages in vivo [2]: can effectively recognize macrophages in vivo
fluorescent labeling of macrophages extracted from the mouse abdominal cavity [2]: can be labeled
co-localization of probe label with F4/80 antibody label [3]: co-localized on the same cells
labeling of in vitro cultured primary macrophages from rat peritoneal cavity [4]: can effectively label
labeling of monocyte precursors from rat bone marrow mesenchyme [5]: capable of labeling
labeling of monocyte precursors from New Zealand White Rabbit bone marrow mesenchyme [6]: capable of labeling
staining of macrophages in mixed culture [7]: only stains macrophages
staining of non-macrophages in mixed culture [7]: not stain non-macrophages
labeling of macrophages on mouse abdominal wall [8]: can be labeled
labeling of other cells of mouse abdominal wall [8]: cannot be labeled

LEQPDPGAVAAAAILRAILE-Y (LEQPDPGAVAAAAILRAILEY; also: C-terminal reporter Y, nature not defined) [LEK21, Human Triokinase/FMN cyclase C-terminal peptide probe, Y = reporter or cysteine/lysine + reporter]
recognition of macrophages in vivo [2]: can effectively recognize macrophages in vivo
fluorescent labeling of macrophages extracted from the mouse abdominal cavity [2]: can be labeled

LQPDPGAVAAAAVLRAVLEGLQG-Y (LQPDPGAVAAAAVLRAVLEGLQGY; also: C-terminal reporter Y, nature not defined) [LK24, Chicken Triokinase/FMN cyclase C-terminal peptide probe, Y = reporter or cysteine/lysine + reporter]
recognition of macrophages in vivo [2]: can effectively recognize macrophages in vivo
fluorescent labeling of macrophages extracted from the mouse abdominal cavity [2]: can be labeled

X-DQPDPGAVAAAAIFRAILEVLQTKAA ({code X}-DQPDPGAVAAAAIFRAILEVLQTKAA; reading uncertain; also: N-terminal reporter X, nature not defined) [r-KA27, Rat Triokinase/FMN cyclase C-terminal peptide probe, X = reporter or cysteine/lysine + reporter]
recognition of macrophages in vivo [2]: can effectively recognize macrophages in vivo
fluorescent labeling of macrophages extracted from the mouse abdominal cavity [2]: can be labeled

X-DQPDPGAVAAAAILRAILEVLQSQGA ({code X}-DQPDPGAVAAAAILRAILEVLQSQGA; reading uncertain; also: N-terminal reporter X, nature not defined) [b-KA27, Pig and cattle Triokinase/FMN cyclase C-terminal peptide probe, X = reporter or cysteine/lysine + reporter]
recognition of macrophages in vivo [2]: can effectively recognize macrophages in vivo
fluorescent labeling of macrophages extracted from the mouse abdominal cavity [2]: can be labeled

X-DQPDPGAVAAAAILRTILEVLQSQGV ({code X}-DQPDPGAVAAAAILRTILEVLQSQGV; reading uncertain; also: N-terminal reporter X, nature not defined) [d-KV27, Dog Triokinase/FMN cyclase C-terminal peptide probe, X = reporter or cysteine/lysine + reporter]
recognition of macrophages in vivo [2]: can effectively recognize macrophages in vivo
fluorescent labeling of macrophages extracted from the mouse abdominal cavity [2]: can be labeled

X-EDQPDPGAVAAAAILRAILEVLQS ({code X}-EDQPDPGAVAAAAILRAILEVLQS; reading uncertain; also: N-terminal reporter X, nature not defined, printed as X-EDQPDPGAVAAAAILRAILEVLQS) [KS24, Human Triokinase/FMN cyclase C-terminal peptide probe, X = reporter or cysteine/lysine + reporter (rhodamine or FITC)]
recognition of macrophages in vivo [2]: can effectively recognize macrophages in vivo
fluorescent labeling of macrophages extracted from the mouse abdominal cavity [2]: can be labeled
fluorescence detection with microscope [9]: can be even detected

X-KNMEAGAGRASYISSARLEQPDPGAVAAAAILRAIL ({code X}-KNMEAGAGRASYISSARLEQPDPGAVAAAAILRAIL; reading uncertain; also: N-terminal reporter X, nature not defined) [KnNL36, Human Triokinase/FMN cyclase C-terminal peptide probe, X = reporter or cysteine/lysine + reporter]
recognition of macrophages in vivo [2]: can effectively recognize macrophages in vivo
fluorescent labeling of macrophages extracted from the mouse abdominal cavity [2]: can be labeled

X-TKNMEAGAGRASYISSARLEQPDPGAVAAAAILRAILEVLQS ({code X}-TKNMEAGAGRASYISSARLEQPDPGAVAAAAILRAILEVLQS; reading uncertain; also: N-terminal reporter X, nature not defined) [TS42, Human Triokinase/FMN cyclase C-terminal peptide probe, X = reporter or cysteine/lysine + reporter]
recognition of macrophages in vivo [2]: can effectively recognize macrophages in vivo
fluorescent labeling of macrophages extracted from the mouse abdominal cavity [2]: can be labeled
